Data as given in patent publication US20060235222A1, “Indole-derivative modulators of steroid hormone nuclear receptors” (ELI LILLY AND COMPANY, priority 2003, published 2006).

Columns and labels:
[1] = target: T1, human GR (glucocorticoid receptor) (Homo sapiens, UniProt P04150); test: Alternative Binding Assay Protocol (Method 2), 293-GR lysate, 3H-dexamethasone competition; settings: 0.3 nM 3H-dexamethasone
T1 construct: expressed in transfected cells; host or cells: 293 cells
T1 sequence (P04150 1-777): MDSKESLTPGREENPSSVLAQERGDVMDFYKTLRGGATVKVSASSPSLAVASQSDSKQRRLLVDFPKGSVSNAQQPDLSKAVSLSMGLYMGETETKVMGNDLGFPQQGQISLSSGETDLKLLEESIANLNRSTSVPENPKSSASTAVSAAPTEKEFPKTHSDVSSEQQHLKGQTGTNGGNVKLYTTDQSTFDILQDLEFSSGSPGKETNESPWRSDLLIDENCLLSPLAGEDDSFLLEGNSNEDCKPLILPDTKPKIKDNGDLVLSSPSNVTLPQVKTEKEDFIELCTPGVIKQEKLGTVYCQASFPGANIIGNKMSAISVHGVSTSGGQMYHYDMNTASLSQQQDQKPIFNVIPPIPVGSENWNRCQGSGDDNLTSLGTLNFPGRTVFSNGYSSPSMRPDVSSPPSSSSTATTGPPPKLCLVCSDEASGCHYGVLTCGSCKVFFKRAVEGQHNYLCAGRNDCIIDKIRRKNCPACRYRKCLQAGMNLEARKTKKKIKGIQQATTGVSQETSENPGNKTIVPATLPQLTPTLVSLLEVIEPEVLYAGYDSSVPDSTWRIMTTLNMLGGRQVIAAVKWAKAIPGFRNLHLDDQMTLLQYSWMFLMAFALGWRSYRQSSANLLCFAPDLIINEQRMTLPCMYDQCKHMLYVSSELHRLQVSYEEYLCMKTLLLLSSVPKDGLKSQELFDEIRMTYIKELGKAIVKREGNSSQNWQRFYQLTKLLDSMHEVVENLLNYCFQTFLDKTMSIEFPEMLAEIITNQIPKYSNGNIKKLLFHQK
Experimental: Alternative Binding Assay Protocol for MR, GR, AR, and PR (Method 2):
Cell lysates from 293 cells overexpressing human GR (glucocorticoid receptor), AR (androgen receptor), MR (mineralocorticoid receptor) or PR (progesterone-receptor) are used for competition binding assays to determine Ki values for test compounds. […] Competing compounds are added at various concentraions in half-log increments. Non-specific binding is determined in the presence of 500 nM dexamethasone for GR binding, 500 nM aldosterone for MR binding, or 500 nM methyltrienolone for AR and PR binding. The binding reaction (140 μl) is incubated for overnight at 4° C., then 70 μl of cold charcoal-dextran buffer (containing per 50 ml of assay buffer, 0.75 g of charcoal and 0.25 g of dextran) is added to each reaction. Plates are mixed 8 minutes on an orbital shaker at 4° C. Plates are then centrifuged at 3,000 rpm at 4° C. for 10 minutes. An aliquot of 120 μl of the mix is transferred to another 96-well plate and 175 μl of Wallac Optiphase “Hisafe 3” scintillation fluid is added to each well. Plates are sealed and shaken vigorously on an orbital shaker. After an incubation of 2 hrs, plates are read in a Wallac Microbeta counter. […] The Kd for ^3H-dexamethasone for GR binding, ^3H-methyltrienolone for AR binding, ^3H-aldosterone for MR binding, or ^3H-methyltrienolone for PR binding, is determined by saturation binding. The IC50 values for compounds are converted to Ki using Cheng-Prusoff equation and the Kd determined by saturation binding assay.

human MR = target: T2, human MR (Homo sapiens, UniProt P08235); test: Mineralocorticoid Receptor Binding Assay (Method 1), [3H]-aldosterone competition; settings: 0.5 nM [3H]-aldosterone, human MR expressed in Sf9 cells
T2 construct: The full length human MR gene is cloned from a human kidney or human brain cDNA library; inferred from own knowledge of the pAcHLT vector (N); made in house; host or cells: Sf9 insect cells (baculovirus)
T2 sequence (P08235 1-984): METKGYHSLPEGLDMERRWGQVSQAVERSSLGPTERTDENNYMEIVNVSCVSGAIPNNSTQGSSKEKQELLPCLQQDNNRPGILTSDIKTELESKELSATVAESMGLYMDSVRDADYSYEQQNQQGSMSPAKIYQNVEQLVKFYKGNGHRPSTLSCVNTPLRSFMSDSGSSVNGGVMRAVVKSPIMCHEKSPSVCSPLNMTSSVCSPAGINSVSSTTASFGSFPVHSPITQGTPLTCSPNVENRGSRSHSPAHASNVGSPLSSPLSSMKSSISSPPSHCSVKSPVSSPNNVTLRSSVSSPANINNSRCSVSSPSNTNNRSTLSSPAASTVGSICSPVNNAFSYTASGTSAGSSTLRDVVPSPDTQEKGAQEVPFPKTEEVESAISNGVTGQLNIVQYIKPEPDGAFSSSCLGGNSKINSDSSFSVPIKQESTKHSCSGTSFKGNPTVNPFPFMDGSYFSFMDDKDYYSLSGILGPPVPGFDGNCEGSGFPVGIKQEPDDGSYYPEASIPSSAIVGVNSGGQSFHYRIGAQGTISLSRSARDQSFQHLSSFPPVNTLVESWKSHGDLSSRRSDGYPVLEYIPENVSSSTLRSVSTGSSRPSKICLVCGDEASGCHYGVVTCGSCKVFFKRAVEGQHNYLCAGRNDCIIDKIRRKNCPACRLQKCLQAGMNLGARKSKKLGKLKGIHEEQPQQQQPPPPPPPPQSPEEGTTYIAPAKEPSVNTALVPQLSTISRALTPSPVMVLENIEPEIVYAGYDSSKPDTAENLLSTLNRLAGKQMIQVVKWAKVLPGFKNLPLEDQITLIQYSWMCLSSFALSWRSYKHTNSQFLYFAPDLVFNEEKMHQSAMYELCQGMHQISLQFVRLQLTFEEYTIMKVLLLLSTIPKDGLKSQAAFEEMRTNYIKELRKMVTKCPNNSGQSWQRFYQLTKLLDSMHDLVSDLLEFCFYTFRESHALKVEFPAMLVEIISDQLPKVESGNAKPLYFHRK
Outline: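 Full-length human MR expressed in Sf9 cells via baculovirus; lysate supernatant (about 20-25 μg protein) incubated with 0.5 nM [3H]-aldosterone and test compound for about 16 h at 4° C. Buffer was Tris/molybdate/phosphate/pyrophosphate with 10% glycerol, pH 7.5; filter-bound complex counted by scintillation.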

glucocorticoid receptor = target: T3, glucocorticoid receptor (Homo sapiens, UniProt P04150); test: Glucocorticoid Receptor Binding Assay (Method 1), [3H]-dexamethasone competition, A549 cell extract; settings: 1.86 nM [3H]-dexamethasone, read-out: GR Ki (nM) Method 1
T3 construct: containing 50-200 ug of A549 cell extract and 1.86 nM; host or cells: A549 human lung epithelial cells
T3 sequence (P04150 1-777): T1 sequence (P04150 1-777)
Outline: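 Receptor source: sonicated extract of human A549 lung epithelial cells in glycerol/Tris-HCl pH 7.2 buffer with sodium molybdate. [3H]-dexamethasone competition run 16 h at 4 °C; unbound radioligand stripped with dextran-coated charcoal (8 min, RT) and receptor-bound radioactivity quantified by scintillation counting.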

| SMILES | Ki [1] | Ki (human MR) | melting point | Ki (glucocorticoid receptor) |
| --- | --- | --- | --- | --- |
| CCC(CC)(c1ccc2[nH]cnc2c1)c1c[nH]c2c(NS(C)(=O)=O)cccc12 [Example 134, N-{3-[1-(1H-Benzoimidazol-5-yl)-1-ethyl-propyl]-1H-indol-7-yl}-methanesulfonamide] | < 500 nM | < 500 nM | 150 to 165 °C |  |
| CCC(CC)(c1ccc2nc(NC(C)=O)sc2c1)c1c[nH]c2c(NS(C)(=O)=O)cccc12 [Example 147, N-{6-[1-Ethyl-1-(7-methanesulfonylamino-1H-indol-3-yl)-propyl]-benzothiazol-2-yl}-acetamide] | < 500 nM | < 500 nM | 286 to 288 °C |  |
| CCC(CC)(c1ccc2nc(C)oc2c1)c1c[nH]c2c(NS(C)(=O)=O)cccc12 [Example 136, N-{3-[1-Ethyl-1-(2-methyl-benzooxazol-6-yl)-propyl]-1H-indol-7-yl}-methanesulfonamide] | < 1000 nM | < 500 nM | 98 to 105 °C |  |
| CCC(CC)(c1ccc2[nH]ncc2c1)c1c[nH]c2c(NS(C)(=O)=O)cccc12 [Example 138, N-{3-[1-Ethyl-1-(1H-indazol-5-yl)-propyl]-1H-indol-7-yl}-methanesulfonamide] | < 500 nM | < 500 nM | 123 to 128 °C |  |
| CCC(CC)(c1ccc2[nH]nnc2c1)c1c[nH]c2c(NS(C)(=O)=O)cccc12 [Example 153, N-{3-[1-(3H-Benzotriazol-5-yl)-1-ethyl-propyl]-1H-indol-7-yl}-methanesulfonamide] | < 500 nM | < 500 nM | 165 to 172 °C |  |
| CCC(CC)(c1ccc2ocnc2c1)c1c[nH]c2c(NS(C)(=O)=O)cccc12 [Example 146, N-[3-(1-Benzooxazol-5-yl-1-ethyl-propyl)-1H-indol-7-yl]-methanesulfonamide] | < 500 nM | < 500 nM | 132 to 135 °C |  |
| CCC(CC)(c1ccc2ccsc2c1)c1c[nH]c2c(NS(C)(=O)=O)cccc12 [Example 139, N-[3-(1-Benzo[b]thiophen-6-yl-1-ethyl-propyl)-1H-indol-7-yl]-methanesulfonamide] | < 500 nM | < 500 nM | 97 to 107 °C |  |
| CCC(CC)(c1ccc2ncoc2c1)c1c[nH]c2c(NS(C)(=O)=O)cccc12 [Example 137, N-[3-(1-Benzooxazol-6-yl-1-ethyl-propyl)-1H-indol-7-yl]-methanesulfonamide] | < 500 nM | < 500 nM | 211 to 213 °C |  |
| CCC(CC)(c1ccc2cc[nH]c2c1)c1c[nH]c2c(NS(C)(=O)=O)cccc12 [Example 159, N-{3-[1-Ethyl-1-(1H-indol-6-yl)-propyl]-1H-indol-7-yl}-methanesulfonamide] |  | < 500 nM | 110 to 115 °C |  |
| CCC(CC)(c1ccc2c(N)noc2c1)c1c[nH]c2c(NS(C)(=O)=O)cccc12 [Example 143, N-{3-[1-(3-Amino-benzo[d]isoxazol-6-yl)-1-ethyl-propyl]-1H-indol-7-yl}-methanesulfonamide] |  | < 500 nM | 95 to 105 °C |  |
| CCC(CC)(c1ccc2sc(Cl)nc2c1)c1c[nH]c2c(NS(C)(=O)=O)cccc12 [Example 161, N-{3-[1-(2-Chloro-benzothiazol-5-yl)-1-ethyl-propyl]-1H-indol-7-yl}-methanesulfonamide] | < 500 nM | < 500 nM | 217 to 220 °C |  |
| CCC(CC)(c1ccc2sccc2c1)c1c[nH]c2c(NS(C)(=O)=O)cccc12 [Example 135, N-[3-(1-Benzo[b]thiophen-5-yl-1-ethyl-propyl)-1H-indol-7-yl]-methanesulfonamide] | < 500 nM | < 500 nM | 85 to 95 °C |  |

The remaining lines, values ahead:

| Ki [1] | Ki (human MR) | melting point | Ki (glucocorticoid receptor) | SMILES |
| --- | --- | --- | --- | --- |
| < 500 nM | < 500 nM | 260 to 263 °C (dec.) |  | CCC(CC)(c1ccc2sc(N)nc2c1)c1c[nH]c2c(NS(C)(=O)=O)cccc12 [Example 141, N-{3-[1-(2-Amino-benzothiazol-5-yl)-1-ethyl-propyl]-1H-indol-7-yl}-methanesulfonamide] |
| < 500 nM |  | 188 to 192 °C |  | CCC(CC)(c1ccc2nc(C)[nH]c2c1)c1c[nH]c2c(NS(C)(=O)=O)cccc12 [Example 154, N-{3-[1-Ethyl-1-(2-methyl-3H-benzoimidazol-5-yl)-propyl]-1H-indol-7-yl}-methanesulfonamide] |
| < 500 nM |  | 216 to 218 °C |  | CCC(CC)(c1ccc2ccn(C(C)=O)c2c1)c1c[nH]c2c(NS(C)(=O)=O)cccc12 [Example 158, N-{3-[1-(1-Acetyl-1H-indol-6-yl)-1-ethyl-propyl]-1H-indol-7-yl}-methanesulfonamide] |
|  | < 500 nM | 144 to 147 °C | < 500 nM | CCC(CC)(c1ccc(F)cc1F)c1c[nH]c2c(NS(C)(=O)=O)cccc12 [Example 62, N-{3-[1-(2,4-Difluoro-phenyl)-1-ethyl-propyl]-1H-indol-7-yl}-methanesulfonamide] |
| < 500 nM | < 500 nM | 180 to 190 °C |  | CCC(CC)(c1ccc2nc(Cl)sc2c1)c1c[nH]c2c(NS(C)(=O)=O)cccc12 [Example 148, N-{3-[1-(2-Chloro-benzothiazol-6-yl)-1-ethyl-propyl]-1H-indol-7-yl}-methanesulfonamide] |
|  | < 500 nM | 137 to 138 °C | < 500 nM | CCC(CC)(c1ccc(F)cc1)c1c[nH]c2c(NS(C)(=O)=O)cccc12 [Example 59, N-{3-[1-Ethyl-1-(4-fluoro-phenyl)-propyl]-1H-indol-7-yl}-methanesulfonamide] |
